Measured values reported in patent US10766917B2, “Nucleotides for the treatment of cancer” (IDENIX PHARMACEUTICALS LLC, priority 2015, dated 2020).
Read-outs that look alike come from different tables or passages of the source. One block for each compound: values may come before it.

What was measured:
Format in all cases: cell-based
HuH-1 cells = assay: In vitro inhibition of HuH-1, MTT assay; conditions: read-out: HuH-1: relative IC50
Description: HuH-1 cells were purchased from JCRB and tested with the following method:
Cells are suspended at a specific density in a specific culture medium (see table in 2.Cell lines).
Then, 100 μl of cell suspension are plated per well in 96-well plates.
Compounds or negative controls (DMSO) are added to the cells (100 μl of a compound solution in its specific medium with a final concentration of 0.15% DMSO).
Each compound concentration is tested in duplicate (6 concentrations per compound).
Cells are incubated at 37° C. for 72 h without treating again.
SDS is added to control wells (final concentration of 1%) and kept for 15 min at 37° C. SDS 1% represents the positive control of proliferation inhibition.
Cell supernatant is removed and 100 μl of a MTT (3-[4.5-dimethylthiazol-2-yl]-2.5-diphenyltetrazolium bromide) solution in fresh medium are added per well (MTT final concentration of 0.5 mg/ml) and incubated for 4 h at 37° C.
MTT reaction is stopped and homogenized by adding 100 μl/well of SDS 10%, 0.01M HCl and incubated for 2 h at 37° C.
Absorbance is measured at 570 nm.

A498 = assay: In vitro inhibition, CellTiter-Glo (CTG) assay; conditions: 72 hr exposure
Description: (§1) Cells were grown in RPMI-1640 supplemented with L-Glutamine and 10% FBS of the following cell lines:
(§2) CCRF-CEM; HL-60; KG-1; CFPAC-1; MiaPACA-2; BxPC-3; HepG2; MDA-MB-231; HCT-116; A498; and NCI-H69
(§3) 18, 96 well plates of each cell line were seeded with the optimized number of cells per well in a total volume of 50 μper well. The plates were left overnight. Plate wells were seeded with 100 pt media for media control. The following day, cells were exposed to test compounds as described below. At the same time as drug exposure, a CTG assay was conducted on the 18th plate for the 0 hr count.
(§4) The compounds were added to cells and medium already on the plate to give desired final concentrations. 50 μL media were added to cell control wells, and 50 μL of mix added to vehicle control wells. 10 μM Doxorubicin was added to appropriate wells as control. Cells exposed to test compound were incubated at 37° C. for 72 hr followed by a CTG assay.
(§5) At the end of the 72 hr exposure period, plates were removed for a CellTiter-Glo (CTG) assay from a 37° C., 5% CO2 incubator and placed on the bench at room temperature for 30 mins. 100 μL of CellTiter-Glo reagent was added and mixed for 2 mins, followed by a further 10 min incubation at room temperature. Luminescence was recorded using Synergy 4.0.

BxPC-3 = assay: In vitro inhibition, CellTiter-Glo (CTG) assay; conditions: 72 hr exposure
Description: as §1, §2, §3, §4, §5

CCRF-CEM = assay: In vitro inhibition, CellTiter-Glo (CTG) assay; conditions: 72 hr exposure
Description: as §1, §2, §3, §4, §5

CFPAC-1 = assay: In vitro inhibition, CellTiter-Glo (CTG) assay; conditions: 72 hr exposure
Description: as §1, §2, §3, §4, §5

HCT-116 = assay: In vitro inhibition, CellTiter-Glo (CTG) assay; conditions: 72 hr exposure
Description: as §1, §2, §3, §4, §5

HL-60 = assay: In vitro inhibition, CellTiter-Glo (CTG) assay; conditions: 72 hr exposure
Description: as §1, §2, §3, §4, §5

HepG2 = assay: In vitro inhibition, CellTiter-Glo (CTG) assay; conditions: 72 hr exposure
Description: as §1, §2, §3, §4, §5

KG-1 = assay: In vitro inhibition, CellTiter-Glo (CTG) assay; conditions: 72 hr exposure
Description: as §1, §2, §3, §4, §5

MDA-MB-231 = assay: In vitro inhibition, CellTiter-Glo (CTG) assay
Description: as §1, §2, §3, §4, §5

MiaPACA-2 = assay: In vitro inhibition, CellTiter-Glo (CTG) assay; conditions: 72 hr exposure
Description: as §1, §2, §3, §4, §5

NCI-H69 = assay: In vitro inhibition, CellTiter-Glo (CTG) assay; conditions: 72 hr exposure
Description: as §1, §2, §3, §4, §5

[1] = Homo sapiens, MDA-MB-231, 72 hr exposure

SMILES: CCOC(=O)[C@H](C)CCO[P@@]1(=O)OC[C@H]2O[C@@H](n3ccc(N)nc3=O)C(F)(F)[C@@H]2O1 (single isomer, unassigned; diastereoisomer 1) [Compound 123 Diastereoisomer 1]
IC50 (HuH-1 cells; 72 h): < 300 nM

SMILES: CC(C)OC(=O)[C@H](C)NP1(=O)OC[C@H]2O[C@@H](n3ccc(N)nc3=O)C(F)(F)[C@@H]2O1 (single isomer, unassigned) [103 (diastereomer 2)]
IC50 (A498): 10000 to 100000 nM
IC50 (BxPC-3): 1000 to 10000 nM
IC50 (CCRF-CEM): < 1000 nM
IC50 (CFPAC-1): 1000 to 10000 nM
IC50 (HCT-116): 1000 to 10000 nM
IC50 (HL-60): < 1000 nM
IC50 (HepG2): < 1000 nM
IC50 (KG-1): < 1000 nM
IC50 (MDA-MB-231; 72 hr exposure): 10000 to 100000 nM
IC50 (MiaPACA-2): 1000 to 10000 nM
IC50 (NCI-H69): 10000 to 100000 nM

SMILES: CC(C)OC(=O)[C@@H](C)CCO[P@]1(=O)OC[C@H]2O[C@@H](n3ccc(N)nc3=O)C(F)(F)[C@@H]2O1 (single isomer, unassigned) [Compound 121 Diastereoisomer 1]
IC50 (HuH-1 cells; Homo sapiens, HuH-1, 72 h): < 300 nM

SMILES: CC(C)OP1(=O)OC[C@H]2O[C@@H](n3ccc(N)nc3=O)C(F)(F)[C@@H]2O1 (single isomer, unassigned) [102 (diastereomer 2)]
IC50 (A498; Homo sapiens, A498, 72 h): 10000 to 100000 nM
IC50 (BxPC-3): 1000 to 10000 nM
IC50 (CFPAC-1): 1000 to 10000 nM
IC50 (HCT-116): 1000 to 10000 nM
IC50 (HepG2): < 1000 nM
IC50 (KG-1; Homo sapiens, KG-1, 72 h): < 1000 nM
IC50 (MDA-MB-231; [1]): 10000 to 100000 nM
IC50 (MiaPACA-2): 1000 to 10000 nM
IC50 (NCI-H69; Homo sapiens, NCI-H69, 72 h): 10000 to 100000 nM

SMILES: CCOC(=O)COP(=O)(N[C@@H](CC(C)C)C(=O)OCC)OC[C@H]1O[C@@H](n2ccc(N)nc2=O)C(F)(F)[C@@H]1O (single isomer, unassigned) [108 (diastereomer 1)]
IC50 (A498): < 1000 nM
IC50 (BxPC-3; Homo sapiens, BXPC-3, 72 h): 1000 to 10000 nM
IC50 (CCRF-CEM; Homo sapiens, CCRF-CEM, 72 h): < 1000 nM
IC50 (CFPAC-1; Homo sapiens, CFPAC-1, 72 h): < 1000 nM
IC50 (HCT-116; Homo sapiens, HCT-116, 72 h): 1000 to 10000 nM
IC50 (HL-60; Homo sapiens, HL-60, 72 h): < 1000 nM
IC50 (HepG2; Homo sapiens, HepG2, 72 h): < 1000 nM
IC50 (KG-1; Homo sapiens, KG-1, 72 h): < 1000 nM
IC50 (MDA-MB-231; [1]): 1000 to 10000 nM
IC50 (MiaPACA-2; Homo sapiens, MIA PaCa-2, 72 h): < 1000 nM
IC50 (NCI-H69): 1000 to 10000 nM

SMILES: Nc1ccn([C@@H]2O[C@H](COP(=O)(O)NCc3ccccc3)[C@@H](O)C2(F)F)c(=O)n1 [Compound 117]
IC50 (A498; Homo sapiens, A498, 72 h): < 1000 nM
IC50 (BxPC-3; Homo sapiens, BXPC-3, 72 h): < 1000 nM
IC50 (CCRF-CEM; Homo sapiens, CCRF-CEM, 72 h): < 1000 nM
IC50 (CFPAC-1; Homo sapiens, CFPAC-1, 72 h): < 1000 nM
IC50 (HCT-116; Homo sapiens, HCT-116, 72 h): < 1000 nM
IC50 (HL-60; Homo sapiens, HL-60, 72 h): < 1000 nM
IC50 (HepG2; Homo sapiens, HepG2, 72 h): < 1000 nM
IC50 (KG-1; Homo sapiens, KG-1, 72 h): < 1000 nM
IC50 (MDA-MB-231; [1]): 1000 to 10000 nM
IC50 (MiaPACA-2; Homo sapiens, MIA PaCa-2, 72 h): < 1000 nM
IC50 (NCI-H69; Homo sapiens, NCI-H69, 72 h): < 1000 nM

Results, then the compound that gave them:

IC50 (HuH-1 cells; Homo sapiens, HuH-1, 72 h): < 300 nM
SMILES: CCOC(=O)[C@H](C)CCO[P@]1(=O)OC[C@H]2O[C@@H](n3ccc(N)nc3=O)C(F)(F)[C@@H]2O1 (single isomer, unassigned) [Compound 123 Diastereoisomer 2]

IC50 (HuH-1 cells; Homo sapiens, HuH-1, 72 h): < 300 nM
SMILES: CCOC(=O)[C@@H](C)CCO[P@@]1(=O)OC[C@H]2O[C@@H](n3ccc(N)nc3=O)C(F)(F)[C@@H]2O1 (single isomer, unassigned) [Compound 122 Diastereoisomer 1]

IC50 (HuH-1 cells; Homo sapiens, HuH-1, 72 h): < 300 nM
SMILES: CC(C)OC(=O)[C@H](C)CCO[P@]1(=O)OC[C@H]2O[C@@H](n3ccc(N)nc3=O)C(F)(F)[C@@H]2O1 (single isomer, unassigned) [Compound 120 Diastereoisomer 1]
